US10520493B2, “Method for assessment of neural function by establishing analysis module” (NATIONAL CHENG KUNG UNIVERSITY, priority 2015, dated 2019)

System: primarily cultured cortical neurons
Assay: High-content image analysis of the effect of chemotherapy drugs on primarily cultured neurons (neuron number, synaptic puncta number, neurite length)
Conditions: cells cultured for 10 days, drug added for 24 hours, FIG. 7-9; for neurotoxicity (effect on the neuron number, the synaptic puncta number and the neurite length): MAP2/synaptophysin/Hoechst staining
Procedure: To analyze neural function accurately, MetaXpress 3.1 software (“MetaXpress® Image Acquisition and Analysis Software (Analysis Guide)” was used on the website ftp://ftp.meta.moleculardevices.com/pub/uic/software/MX31R13/HelpDocs/MetaXpress/MetaXpress_3_1_Analysis_Guide.pdf) to design an analysis module. An automatic analysis was performed according to the following optimal indicators (a)˜(c) for image analysis with 32 steps.
The cultured cells including neurons and glial cells were firstly separated according to the area and the fluorescence intensity of the nucleus stained by Hoechst dye together with MAP2 antibody.
After neurons stained with MAP2 were selected, the area of neuronal cell body, the length and the number of processes and branches of the neurites were calculated to verify outgrowth of the neurites.
Numbers of synaptic puncta of the neurons were calculated according to the area of the neurites labeled with fluorescence mentioned above to verify formation of the synaptic puncta of the neurons.
Cerebral cortex was obtained from 0˜1 day old B6 mice pup and meninges were removed. DMEM/F12 medium without serum was used to triturate the cortex tissue. Then, the DMEM/F12 medium without serum was refilled to 5 mL, mixed evenly with 0.5 mL trypsin, and placed at 37° C. for 5 minutes. Then the mixture with 1 mL FBS was filtered through a cell strainer. After a centrifugation at 3,000 rpm for 10 min, the supernatant was removed and precipitated cells were added to a medium required for nerve cell culture. The medium was prepared by adding B-27® Supplement, 0.5 mM L-glutamine, and 0.5% penicillin streptomycin to Neurobasal® A medium.
(2) Black multi-well microplates with clear bottom were used for nerve cell culture. Each well was coated with 70 μL poly-D-lysine or poly-L-lysine. Cells were seeded in a density of 2.8×10^4/well. After cells were cultured for 10 days, chemotherapy drugs listed in the table 1 was respectively added to react with cells for 24 hours. Then cells were fixed with 4% polyformaldehyde for 10 min and washed with PBS twice for 5 min each. Then, each well was added with 1 M glycine reacting for 10 min and wash with PBS twice for 5 min each. After cells were added with 0.05% Triton X-100 reacting for 20 min and washed with PBS twice for 5 min each, cell were blocked with 4% BSA for 1 hour and then stained with primary antibodies including anti-MAP2 antibody (MyBioSource; MBS502140) and anti-synaptophysin antibody (Abcam; ab32127) for 12-16 hours. Next, cells were washed twice with PBST (10 min each) and incubated with fluorescence-conjugated secondary antibodies including Alexa Fluor 488 (Jackson ImmunoResearch; 703-546-155) and Alexa Fluor 647 (molecular probes; A31573) and Hoechst 33258 for 1 hour. At last, cells were washed twice with PBST (10 min each) and added with PBS for further image acquisition and analysis.
(3) Fluorescence microscopy system and method mentioned in the above embodiment were used to capture images at the wavelength of DAPI, FITC, and Cy5 for image analysis of the cultured cells. The images were enlarged 200 times (200×) and saved automatically after the shooting for analysis.

Row | SMILES | neurotoxicity (effect on the neuron number, the synaptic puncta number and the neurite length) | neurotoxicity compared with cisplatin (compared with cisplatin)
1 | CC[C@]1(O)C[C@H]2CN(CCc3c([nH]c4ccccc34)[C@@](C(=O)OC)(c3cc4c(cc3OC)N(C=O)[C@H]3[C@@](O)(C(=O)OC)[C@H](OC(C)=O)[C@]5(CC)C=CCN6CC[C@]43[C@@H]65)C2)C1 [vincristine, Vincristine] | severe neurotoxicity | 
2 | Nc1ccn([C@@H]2O[C@H](CO)[C@@H](O)C2(F)F)c(=O)n1 [Gemcitabine] | less neurotoxicity | 
3 | CC(=O)O[C@H]1C(=O)[C@@]2(C)[C@H]([C@H](OC(=O)c3ccccc3)[C@]3(O)C[C@H](OC(=O)[C@H](O)[C@@H](NC(=O)c4ccccc4)c4ccccc4)C(C)=C1C3(C)C)[C@]1(OC(C)=O)CO[C@@H]1C[C@@H]2O [paclitaxel, Paclitaxel] | severe neurotoxicity | 
4 | N.N.O=C([O-])C1(C(=O)[O-])CCC1.[Pt+2] [carboplatin, Carboplatin] |  | less neurotoxicity
5 | COc1cccc2c1C(=O)c1c(O)c3c(c(O)c1C2=O)C[C@@](O)(C(=O)CO)C[C@@H]3O[C@H]1C[C@H](N)[C@H](O)[C@H](C)O1 [doxorubicin, Doxorubicin] | less neurotoxicity | 
